According to ChEMBL document CHEMBL3045846, “Experimental validation and docking studies of flavone derivatives on aldose reductase involved in diabetic retinopathy, neuropathy, and nephropathy” (Med Chem Res, 2011):

Each molecule was assayed against Aldo-keto reductase family 1 member B1 (Bos taurus) (UniProt P16116) (assay: Inhibition of Bos taurus (bovine) aldose reductase isolated from lens using DL-glyceraldehyde as substrate at 1.8 mM by UV-Vis spectrophotometric analysis).

inhibition [%]	SMILES
80	Cc1c(Cl)cc2c(=O)cc(-c3ccc(Cl)cc3Cl)oc2c1I
80	Cc1c(Cl)cc2c(=O)cc(-c3ccccc3)oc2c1I
70	O=c1cc(-c2ccccc2)oc2c(I)cc(Cl)cc12
80	O=c1cc(-c2ccc(Cl)cc2Cl)oc2c(I)cc(Cl)cc12
60	O=c1cc(-c2ccccc2Cl)oc2ccccc12

What follows are molecules tested against Aldo-keto reductase family 1 member B1 (Homo sapiens, UniProt P15121) (assay: Inhibition of aldose reductase (unknown origin)).

IC50 [nM]	SMILES
140	O=C(O)/C=C/c1ccc(O)cc1 [COUMARIC ACID]
1910	O=c1cc(-c2ccc(O)c(O)c2)oc2cc(O)c([C@@H]3O[C@H](CO)[C@@H](O)[C@H](O)[C@H]3O)c(O)c12 [ISOORIENTIN]

SMILES	IC50 [nM]
COc1cc(-c2cc(=O)c3c(O)cc(O)cc3o2)cc(OC)c1O [TRICIN]	2030

The molecules below were run against Aldo-keto reductase family 1 member B1 (Rattus norvegicus, UniProt P07943) (assay: Inhibition of Rattus norvegicus (rat) aldose reductase isolated from lens using DL-glyceraldehyde as substrate after 30 min by fluorometric analysis).

SMILES	IC50 [nM]
O=c1cc(-c2ccc(O)cc2)oc2c([C@@H]3O[C@H](CO)[C@@H](O)[C@H](O)[C@H]3O)c(O)cc(O)c12 [VITEXIN]	2030
